Our source for the relative viability values is the supplement of paper PMC10307832.

Common to all, as to experiment: relative viability (nuclei count vs DMSO), 5 days (fraction); higher = more cells survive
Compound in the assay “Motesanib + Palbociclib”: CC1(C)CNc2cc(NC(=O)c3cccnc3NCc3ccncc3)ccc21 [Motesanib] + CC(=O)c1c(C)c2cnc(Nc3ccc(N4CCNCC4)cn3)nc2n(C2CCCC2)c1=O [Palbociclib] (partner 0.5 µM)
The method in brief: (§1)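 Relative viability was taken as the ratio of nuclei in treated wells to nuclei in vehicle wells. Lung cancer cell lines in 1536-well plates received compounds by pin tool one day after seeding, either one drug alone or a fixed anchor-drug dose plus five library-drug doses (not always all listed) in √10 steps. Nuclei were counted on 4× images after 5 days of treatment, and values are medians of duplicate plates.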

Compound in assay [1]: C[C@@]1(C(=O)Nc2ccc(F)nc2)CCCN1c1nc(Nc2cc(C3CC3)n[nH]2)c2cccn2n1 + CC(=O)c1c(C)c2cnc(Nc3ccc(N4CCNCC4)cn3)nc2n(C2CCCC2)c1=O [Palbociclib] (partner 0.5 µM)
The method in brief: as §1

Compound in assay [2]: C[C@@]1(C(=O)Nc2ccc(F)nc2)CCCN1c1nc(Nc2cc(C3CC3)n[nH]2)c2cccn2n1 + CS(=O)(=O)N1CCN(Cc2cc3nc(-c4cccc5[nH]ncc45)nc(N4CCOCC4)c3s2)CC1 [Pictilisib] (partner 1 µM)
The method, boiled down:
as §1

Compound in assay [3]: C[C@@]1(C(=O)Nc2ccc(F)nc2)CCCN1c1nc(Nc2cc(C3CC3)n[nH]2)c2cccn2n1 + O=C(c1cc(Cc2n[nH]c(=O)c3ccccc23)ccc1F)N1CCN(C(=O)C2CC2)CC1 [Olaparib] (partner 8 µM)
The method, boiled down: as §1

Take ChaGo-K-1: the relative viability in the assay with Motesanib + Palbociclib (first compound 0.01 µM) was found to be 0.899; with Motesanib + Palbociclib (first compound 0.03162 µM) it was 0.881; with Motesanib + Palbociclib (first compound 0.1 µM) it was 0.976; with Motesanib + Palbociclib (first compound 0.3162 µM), 0.856; with Motesanib + Palbociclib (first compound 1 µM), 0.908; in assay [1] (first compound 0.04 µM), 0.972. The relative viability stood at 0.828 in assay [1] (first compound 0.1265 µM); 0.86 in assay [1] (first compound 0.4 µM); 0.93 in assay [1] (first compound 1.265 µM); 0.643 in assay [2] (first compound 0.04 µM); 0.662 in assay [2] (first compound 0.1265 µM); 0.849 in assay [2] (first compound 0.4 µM). Moreover, the relative viability in assay [2] (first compound 1.265 µM) came out at 0.371; in assay [3] (first compound 0.04 µM), 0.414; in assay [3] (first compound 0.1265 µM), 0.398; in assay [3] (first compound 0.4 µM), 0.402; in assay [3] (first compound 1.265 µM) it was 0.422.
For the cell line EBC-1, the relative viability worked out at 0.32 in assay [2] (first compound 0.04 µM); 0.231 in assay [2] (first compound 0.1265 µM); 0.241 in assay [2] (first compound 0.4 µM); 0.162 in assay [2] (first compound 1.265 µM); 0.695 in assay [3] (first compound 0.04 µM); 0.666 in assay [3] (first compound 0.1265 µM). The relative viability in assay [3] (first compound 0.4 µM) amounted to 0.61; in assay [3] (first compound 1.265 µM) it was 0.391.
Regarding EKVX, the relative viability with Motesanib + Palbociclib (first compound 0.01 µM) was determined as 0.415; with Motesanib + Palbociclib (first compound 0.03162 µM), 0.347; in the assay with Motesanib + Palbociclib (first compound 0.1 µM), 0.378; in the assay with Motesanib + Palbociclib (first compound 0.3162 µM), 0.36; in the assay with Motesanib + Palbociclib (first compound 1 µM) it was 0.398; in assay [1] (first compound 0.04 µM), 0.387. In addition, the relative viability was determined as 0.277 in assay [1] (first compound 0.1265 µM); 0.279 in assay [1] (first compound 0.4 µM); 0.286 in assay [1] (first compound 1.265 µM); 0.354 in assay [2] (first compound 0.04 µM); 0.328 in assay [2] (first compound 0.1265 µM); 0.33 in assay [2] (first compound 0.4 µM). Also, the relative viability was 0.409 in assay [2] (first compound 1.265 µM); 0.874 in assay [3] (first compound 0.04 µM); 0.644 in assay [3] (first compound 0.1265 µM); 0.635 in assay [3] (first compound 0.4 µM); 0.735 in assay [3] (first compound 1.265 µM).
For the cell line EMC-BAC-2, the relative viability was 0.513 in the assay with Motesanib + Palbociclib (first compound 0.01 µM); 0.511 with Motesanib + Palbociclib (first compound 0.03162 µM); 0.526 with Motesanib + Palbociclib (first compound 0.1 µM); 0.526 with Motesanib + Palbociclib (first compound 0.3162 µM); 0.534 in the assay with Motesanib + Palbociclib (first compound 1 µM); 0.393 in assay [1] (first compound 0.04 µM). The relative viability in assay [1] (first compound 0.1265 µM) was 0.333; in assay [1] (first compound 0.4 µM) it was 0.331; in assay [1] (first compound 1.265 µM) it was 0.369; in assay [2] (first compound 0.04 µM), 0.514; in assay [2] (first compound 0.1265 µM) it was 0.498; in assay [2] (first compound 0.4 µM), 0.358. For the same cell line, the relative viability came to 0.495 in assay [2] (first compound 1.265 µM); 0.406 in assay [3] (first compound 0.04 µM); 0.368 in assay [3] (first compound 0.1265 µM); 0.312 in assay [3] (first compound 0.4 µM); 0.334 in assay [3] (first compound 1.265 µM).
Consider IA-LM, for which the relative viability in assay [2] (first compound 0.04 µM) came out at 0.175; in assay [2] (first compound 0.1265 µM), 0.261; in assay [2] (first compound 0.4 µM) it was 0.125; in assay [2] (first compound 1.265 µM) it was 0.179; in assay [3] (first compound 0.04 µM), 0.835; in assay [3] (first compound 0.1265 µM), 0.81. Further, the results for the relative viability in assay [3] (first compound 0.4 µM) and in assay [3] (first compound 1.265 µM) were 0.658 and 0.719, respectively.
For NCI-H522, the relative viability was found to be 1.15 with Motesanib + Palbociclib (first compound 0.01 µM); 1.01 with Motesanib + Palbociclib (first compound 0.03162 µM); 1 in the assay with Motesanib + Palbociclib (first compound 0.1 µM); 0.84 in the assay with Motesanib + Palbociclib (first compound 0.3162 µM); 1.26 with Motesanib + Palbociclib (first compound 1 µM); 0.935 in assay [1] (first compound 0.04 µM). Also, the relative viability amounted to 0.874 in assay [1] (first compound 0.1265 µM); 0.779 in assay [1] (first compound 0.4 µM); 0.889 in assay [1] (first compound 1.265 µM); 0.66 in assay [3] (first compound 0.04 µM); 0.588 in assay [3] (first compound 0.1265 µM); 0.615 in assay [3] (first compound 0.4 µM). Also, the relative viability in assay [3] (first compound 1.265 µM) worked out at 0.596.
Turning to NCI-H596, the relative viability stood at 0.378 in assay [2] (first compound 0.04 µM); 0.349 in assay [2] (first compound 0.1265 µM); 0.335 in assay [2] (first compound 0.4 µM); 0.316 in assay [2] (first compound 1.265 µM); 0.714 in assay [3] (first compound 0.04 µM); 0.697 in assay [3] (first compound 0.1265 µM). Further, the relative viability in assay [3] (first compound 0.4 µM) came to 0.608; in assay [3] (first compound 1.265 µM), 0.571.
In the case of NCI-H1299, the relative viability worked out at 0.752 in assay [2] (first compound 0.04 µM); 0.844 in assay [2] (first compound 0.1265 µM); 0.669 in assay [2] (first compound 0.4 µM); 0.286 in assay [2] (first compound 1.265 µM); 0.976 in assay [3] (first compound 0.04 µM); 0.97 in assay [3] (first compound 0.1265 µM). The relative viability in assay [3] (first compound 0.4 µM) came out at 0.887; in assay [3] (first compound 1.265 µM) it was 0.964.
Regarding NCI-H1563, the relative viability in assay [2] (first compound 0.04 µM) is 0.625; in assay [2] (first compound 0.1265 µM), 0.614; in assay [2] (first compound 0.4 µM) it was 0.596; in assay [2] (first compound 1.265 µM), 0.598.
In the case of NCI-H1648, the relative viability was 0.305 with Motesanib + Palbociclib (first compound 0.01 µM); 0.28 in the assay with Motesanib + Palbociclib (first compound 0.3162 µM); 0.261 with Motesanib + Palbociclib (first compound 1 µM); 0.257 in assay [1] (first compound 0.04 µM); 0.246 in assay [1] (first compound 0.1265 µM); 0.269 in assay [1] (first compound 0.4 µM). Moreover, the relative viability in assay [1] (first compound 1.265 µM) turned out to be 0.259; in assay [3] (first compound 0.04 µM), 0.446; in assay [3] (first compound 0.1265 µM), 0.746; in assay [3] (first compound 0.4 µM) it was 0.422; in assay [3] (first compound 1.265 µM), 0.7.
With NCI-H1703, the relative viability in assay [2] (first compound 0.04 µM) was determined as 0.25; in assay [2] (first compound 0.1265 µM) it was 0.224; in assay [2] (first compound 0.4 µM) it was 0.227; in assay [2] (first compound 1.265 µM) it was 0.213; in assay [3] (first compound 0.04 µM), 0.402; in assay [3] (first compound 0.1265 µM) it was 0.428. The relative viability in assay [3] (first compound 0.4 µM) stood at 0.421; in assay [3] (first compound 1.265 µM), 0.357.
Regarding NCI-H2342, the relative viability with Motesanib + Palbociclib (first compound 0.01 µM) stood at 0.508; with Motesanib + Palbociclib (first compound 0.03162 µM), 0.52; with Motesanib + Palbociclib (first compound 0.1 µM), 0.539; with Motesanib + Palbociclib (first compound 0.3162 µM), 0.527; in the assay with Motesanib + Palbociclib (first compound 1 µM) it was 0.554; in assay [1] (first compound 0.04 µM), 0.505. Besides, the relative viability in assay [1] (first compound 0.1265 µM) was found to be 0.598; in assay [1] (first compound 0.4 µM) it was 0.47; in assay [1] (first compound 1.265 µM), 0.48; in assay [3] (first compound 0.04 µM), 0.438; in assay [3] (first compound 0.1265 µM) it was 0.449; in assay [3] (first compound 0.4 µM) it was 0.336. Besides, in assay [3] (first compound 1.265 µM), the relative viability was determined as 0.329.
Consider SW 900, for which the relative viability came to 0.489 with Motesanib + Palbociclib (first compound 0.01 µM); 0.53 in the assay with Motesanib + Palbociclib (first compound 0.03162 µM); 0.56 with Motesanib + Palbociclib (first compound 0.1 µM); 0.614 with Motesanib + Palbociclib (first compound 0.3162 µM); 0.564 in the assay with Motesanib + Palbociclib (first compound 1 µM); 0.614 in assay [1] (first compound 0.04 µM). Further, the relative viability is 0.497 in assay [1] (first compound 0.1265 µM); 0.588 in assay [1] (first compound 0.4 µM); 0.547 in assay [1] (first compound 1.265 µM); 1.02 in assay [3] (first compound 0.04 µM); 0.895 in assay [3] (first compound 0.1265 µM); 0.721 in assay [3] (first compound 0.4 µM). Further, the relative viability in assay [3] (first compound 1.265 µM) stood at 0.717.
